Measurements from patent US12599676B2, “Cytotoxic imidazo[1,2-A]pyridine compounds and their use in therapy” (MyricX Pharma Limited, priority 2022, dated 2026).

Columns and labels:
[1] = system: SU-DHL-10 cell line (human B cell lymphoma); assay: Cell cytotoxicity in SU-DHL-10 cell line (CellTiter-Glo); format: cell-based; conditions: Homo sapiens, SU-DHL10, 72 h, 72 h treatment, CTG
Summary of the method: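 Cells seeded at 5000-8000/well, dosed next day with 9 concentrations in triplicate (DMSO 0.1% final) and incubated 72 h at 37° C, 5% CO2. Viability by CellTiter-Glo luminescence normalised to vehicle (100%) and medium blank; IC50 from sigmoidal nonlinear regression.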

[2] = system: LYXFDLBC2835 (patient-derived xenograft lymphoma); assay: Cell cytotoxicity CellTiter-Glo, LYXFDLBC2835; format: cell-based
Procedure: (§1) Cells were seeded in 96-well microplates and treated with compounds or cisplatin (as a positive control) at 9 increasing concentrations in technical triplicate. […] On day 1, 90 μL of various cell suspensions with the number of cells ranging from 5000-8000 cells/well were seeded into wells of a 96-well plate (Corning). The number of cells to be seeded was previously determined. • 2. All 96-wells plates with cells were placed in an incubator overnight at 37° C. with 5% CO2. • 3. On day 2, cells were observed under a microscope ensuring the cells treated with vehicle control were in good condition. • 4. A dilution series of the test compounds and cisplatin were prepared at 10× the final concentrations required. 10 μL/well of 10× compound solution was added to the corresponding plates. The final volume was 100 μL/well for all the plates. Final DMSO concentration was 0.1%. • 5. On day 5 (after 72 hours of incubation), 50 μL of CTG reagent was added to each well. • 6. Contents were mixed for 5 minutes on an orbital shaker to facilitate cell lysis. • 7. The plate was allowed to incubate at room temperature for 10 minutes to stabilize luminescent signals.
(§2) The effects of Comparator Compound 1 and certain Example compounds on the viability of various cell lines (LYXFDLBC2835, LYXFDLBC4009 and LYXFDLBC411 (patient-derived xenograft lymphoma), HT1080 (human fibrosarcoma), CA46 (human B cell lymphoma), RKO (human colon carcinoma), NCI-H1703 (human lung squamous cell carcinoma), MX-1 (human breast carcinoma), DU4475 (human breast carcinoma), LU2511 (human lung large cell undifferentiated carcinoma), LU0884 (human lung squamous cell carcinoma)), Panc-1 (human pancreatic carcinoma), MCF-7 (human breast cancer), SW480 (human colon adenocarcinoma) and HCC1806 (human breast ductal carcinoma) were performed using the standard CellTiter-Glo assay (CTG, Promega) as described in Biological Example 2. Compounds which show efficacy in these assays are expected to be useful as agents for treating or preventing hyperproliferative disorders such as cancer.

[3] = system: LYXFDLBC4009 (patient-derived xenograft lymphoma); assay: Cell cytotoxicity CellTiter-Glo, LYXFDLBC4009; format: cell-based
Procedure: as §1, §2

[4] = system: LYXFDLBC4113 (patient-derived xenograft lymphoma); assay: Cell cytotoxicity CellTiter-Glo, LYXFDLBC4113; format: cell-based
Procedure: as §1, §2

[5] = system: LU2511 (human lung large cell undifferentiated carcinoma); assay: Cell cytotoxicity CellTiter-Glo, LU2511; format: cell-based
Procedure: as §1, with “signals. […]” for “signals.”

[6] = system: LU0884 (human lung squamous cell carcinoma); assay: Cell cytotoxicity CellTiter-Glo, LU0884; format: cell-based
Procedure: as §1, with “signals. […]” for “signals.”

[7] = system: Caco-2 cells; assay: Caco-2 cell permeability assay; format: in vitro ADME; conditions: apical to basal Papp, 2 μM, pH 7.4, 2.5 h
Summary of the method: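 Caco-2 monolayers grown 10 days were dosed at 2 μM (1% DMSO) on the donor side in HBSS/10 mM HEPES pH 7.4, for both AB and BA directions, then incubated 2.5 h at 37 °C without shaking. Donor and acceptor samples were quantified by LC-MS/MS to give Papp. Wells that failed a Lucifer Yellow integrity check (>1% passage) were excluded.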

[8] = system: NCI-H1703 (human lung squamous cell carcinoma); assay: Cell cytotoxicity CellTiter-Glo, NCI-H1703; format: cell-based
Procedure: as §1, with “signals. […]” for “signals.”

Row | Caco-2 A-B [7] [×10⁻⁶ cm/s] | Structure (SMILES) | IC50 [1] [nM] | IC50 [2] [nM] | IC50 [3] [nM] | IC50 [4] [nM] | IC50 [5] [nM] | IC50 [6] [nM] | IC50 [8] [nM]
1 | 0.95 | CNCc1cnc2ccc(-c3ccc(F)c(F)c3OCCc3c(C(O)C(C)(C)C)nn(C)c3C)cn12 (single isomer, unassigned) [Example 12, 1-(4-(2-(2,3-difluoro-6-(3-((methylamino)methyl)imidazo[1,2-a]pyridin-6-yl)phenoxy)ethyl)-1,5-dimethyl-1H-pyrazol-3-yl)-2,2-dimethylpropan-1-ol] | 0.6 | 10 | 3 | 3 | 0.07 | 3 | –
2 | 0.0 | Cc1c(CCOc2cc(Cl)ccc2-c2ccc3ncc(CCN)n3c2)c(C(=O)N(C)C)nn1C [Comparator Compound 1, 4-(2-{2-[3-(2-aminoethyl)imidazo[1,2-a]pyridin-6-yl]-5-chlorophenoxy}ethyl)-N,N,1,5-tetramethyl-1H-pyrazole-3-carboxamide, reference compound] | 5 | 130 | 1540 | 890 | 9 | 44 | 82
